The source of these data is ChEMBL document CHEMBL1201862, “PubChem BioAssay data set” (2004).

Activity calls are given as the source filed them.

Experiment [1] addresses T1, Caspase-3 (Homo sapiens, UniProt P42574).
T1 sequence (P42574 whole entry): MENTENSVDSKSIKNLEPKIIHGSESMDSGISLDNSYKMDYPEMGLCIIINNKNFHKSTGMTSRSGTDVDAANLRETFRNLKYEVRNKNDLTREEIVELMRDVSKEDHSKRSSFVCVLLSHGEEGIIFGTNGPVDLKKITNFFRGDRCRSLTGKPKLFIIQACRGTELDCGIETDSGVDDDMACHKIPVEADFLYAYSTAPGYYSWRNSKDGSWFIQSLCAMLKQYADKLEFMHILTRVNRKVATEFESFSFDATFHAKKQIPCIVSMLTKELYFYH
The format is functional.

Experiment [2] has as its target T2, Sentrin-specific protease 7 (Homo sapiens, UniProt Q9BQF6).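 Further: Luminescence-based dose-response confirmation of ultra-high-throughput screening hits, measuring inhibition of SENP7.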
T2 sequence (Q9BQF6 whole entry): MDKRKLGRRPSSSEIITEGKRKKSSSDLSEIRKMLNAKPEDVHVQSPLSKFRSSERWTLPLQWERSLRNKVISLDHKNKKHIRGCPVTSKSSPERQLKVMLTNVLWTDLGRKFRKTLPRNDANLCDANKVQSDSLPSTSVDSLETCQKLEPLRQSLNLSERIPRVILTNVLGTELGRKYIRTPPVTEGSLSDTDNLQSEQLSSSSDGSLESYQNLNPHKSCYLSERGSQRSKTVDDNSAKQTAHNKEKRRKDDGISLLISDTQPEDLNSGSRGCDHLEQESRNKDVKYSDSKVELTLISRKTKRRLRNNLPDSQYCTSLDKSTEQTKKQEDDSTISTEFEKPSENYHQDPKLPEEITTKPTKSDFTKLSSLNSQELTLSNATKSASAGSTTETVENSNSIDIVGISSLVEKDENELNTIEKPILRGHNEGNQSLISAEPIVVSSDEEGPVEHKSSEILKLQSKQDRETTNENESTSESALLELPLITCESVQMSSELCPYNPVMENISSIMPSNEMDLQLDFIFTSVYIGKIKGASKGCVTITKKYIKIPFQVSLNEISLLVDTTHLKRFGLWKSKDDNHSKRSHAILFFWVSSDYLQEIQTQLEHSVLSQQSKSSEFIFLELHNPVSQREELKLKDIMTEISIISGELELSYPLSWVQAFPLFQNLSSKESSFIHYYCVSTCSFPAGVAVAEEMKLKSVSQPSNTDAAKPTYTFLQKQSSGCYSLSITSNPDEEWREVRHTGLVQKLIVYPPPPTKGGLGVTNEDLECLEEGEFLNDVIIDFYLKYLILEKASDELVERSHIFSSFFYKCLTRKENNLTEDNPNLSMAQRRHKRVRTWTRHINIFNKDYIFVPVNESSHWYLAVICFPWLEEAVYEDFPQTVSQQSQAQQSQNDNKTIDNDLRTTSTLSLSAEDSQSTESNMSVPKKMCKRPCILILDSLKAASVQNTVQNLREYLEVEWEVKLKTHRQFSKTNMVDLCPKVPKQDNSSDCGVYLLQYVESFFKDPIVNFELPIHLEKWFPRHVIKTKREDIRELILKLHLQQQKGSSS
The class given is functional.

Another experiment concerns the target Caspase-8 (Homo sapiens, UniProt Q14790). The experiment in a line: caspase-8 inhibition counter-screen, dose response, selectivity assay for caspase-6 inhibitor project, biochemical, Z-IETD-R110 fluorescence, cherry-picked samples (AID 743294).
The target of experiment [3] is T3, Sentrin-specific protease 8 (Homo sapiens, UniProt Q96LD8).
T3 sequence (Q96LD8 whole entry): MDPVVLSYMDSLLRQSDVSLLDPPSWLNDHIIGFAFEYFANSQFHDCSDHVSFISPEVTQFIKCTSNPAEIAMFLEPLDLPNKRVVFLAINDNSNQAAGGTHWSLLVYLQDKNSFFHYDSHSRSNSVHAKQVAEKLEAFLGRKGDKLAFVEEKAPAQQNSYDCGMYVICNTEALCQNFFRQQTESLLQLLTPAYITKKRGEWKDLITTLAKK
The experiment in a line: SENP8 protease inhibitors, SAR follow-up, biochemical, luminescence (AID 504501). The class given is functional.

Experiment [4] deals with T1, Caspase-3. Put plainly: SAR Analysis of small molecule inhibitors of Sentrin-specific proteases (SENPs) using a Caspase-3 Selectivity assay. [Related pubchem assays (depositor defined):AID2540, AID2599, AID434973, AID489001]. The format is functional.
The target of experiment [5] is Serine/threonine-protein kinase TAO1 (Homo sapiens, UniProt Q7L7X3). The class given is functional.
Experiment [6] has as its target Mitogen-activated protein kinase 8 (Homo sapiens, UniProt P45983). The format is functional.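 Further: value comes from one member of a kinome-wide kinase profiling panel.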
Experiment [7] deals with Rho-associated protein kinase 1 (Homo sapiens, UniProt Q13464). The class given is functional.
For experiment [8], the target named is Inhibitor of nuclear factor kappa-B kinase subunit epsilon (Homo sapiens, UniProt Q14164). Put plainly: Navigating the Kinome. Panel member name: IKBKE. The format is functional.
The target in experiment [9] is Testis-specific serine/threonine-protein kinase 1 (Homo sapiens, UniProt Q9BXA7). The format is functional.
Experiment [10] concerns the target Mitogen-activated protein kinase 12 (Homo sapiens, UniProt P53778). The class given is functional.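 Further: measured as one member of a kinome-wide kinase profiling panel.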
The target of experiment [11] is Tyrosine-protein kinase SYK (Homo sapiens, UniProt P43405). The class given is functional.
For experiment [12], the target named is Tyrosine-protein kinase FRK (Homo sapiens, UniProt P42685). The class given is functional.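 Further: FRK tested as one member of a kinome panel.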
Experiment [13] deals with Cyclin-dependent kinase 1 (Homo sapiens, UniProt P06493). The format is functional.
Experiment [14] addresses Tyrosine-protein kinase JAK3 (Homo sapiens, UniProt P52333). The class given is functional.
The target of experiment [15] is Mitogen-activated protein kinase kinase kinase kinase 2 (Homo sapiens, UniProt Q12851). The class given is functional.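 Further: measured as one member of a kinome-wide kinase panel, with MAP4K2 as the panel entry.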
Experiment [16] concerns the target Proto-oncogene tyrosine-protein kinase receptor Ret (Homo sapiens, UniProt P07949). The format is functional.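 Further: measured within a kinome-wide profiling panel, RET as the panel member.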
For the next experiment, the target named is SRSF protein kinase 1 (Homo sapiens, UniProt Q96SB4). The format is functional.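 Further: measured as one member of a kinome-wide kinase profiling panel.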
In experiment [17] the target is Maternal embryonic leucine zipper kinase (Homo sapiens, UniProt Q14680). The format is functional.
The target in experiment [18] is Macrophage colony-stimulating factor 1 receptor (Homo sapiens, UniProt P07333). The class given is functional.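 Further: value comes from the Navigating the Kinome screening panel, CSF1R member.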
Experiment [19] has as its target Cyclin-dependent kinase 2 (Homo sapiens, UniProt P24941). The class given is functional.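 Further: CDK2 measured as one member of a broad kinome profiling panel.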
Experiment [20] concerns the target Calcium/calmodulin-dependent protein kinase type II subunit gamma (Homo sapiens, UniProt Q13555). The format is functional.
In experiment [21] the target is Mitogen-activated protein kinase 14 (Homo sapiens, UniProt Q16539). The class given is functional.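 Further: part of a kinome-wide panel, MAPK14 entry.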
For experiment [22], the target named is MAP/microtubule affinity-regulating kinase 3 (Homo sapiens, UniProt P27448). The class given is functional.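 Further: MARK3 affinity measured as one member of a kinome panel.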

Sequence of Mitogen-activated protein kinase 12 (P53778 whole entry): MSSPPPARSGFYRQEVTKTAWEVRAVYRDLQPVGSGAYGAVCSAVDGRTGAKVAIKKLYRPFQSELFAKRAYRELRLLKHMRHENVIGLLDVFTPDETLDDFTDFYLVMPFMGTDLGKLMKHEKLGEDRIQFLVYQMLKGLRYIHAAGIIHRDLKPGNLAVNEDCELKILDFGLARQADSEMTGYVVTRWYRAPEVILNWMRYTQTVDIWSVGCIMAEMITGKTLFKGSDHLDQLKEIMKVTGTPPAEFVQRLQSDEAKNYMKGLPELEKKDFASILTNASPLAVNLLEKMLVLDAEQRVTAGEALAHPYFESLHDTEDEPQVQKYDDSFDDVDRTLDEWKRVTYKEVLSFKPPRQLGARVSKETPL
Sequence of Tyrosine-protein kinase JAK3 (P52333 whole entry): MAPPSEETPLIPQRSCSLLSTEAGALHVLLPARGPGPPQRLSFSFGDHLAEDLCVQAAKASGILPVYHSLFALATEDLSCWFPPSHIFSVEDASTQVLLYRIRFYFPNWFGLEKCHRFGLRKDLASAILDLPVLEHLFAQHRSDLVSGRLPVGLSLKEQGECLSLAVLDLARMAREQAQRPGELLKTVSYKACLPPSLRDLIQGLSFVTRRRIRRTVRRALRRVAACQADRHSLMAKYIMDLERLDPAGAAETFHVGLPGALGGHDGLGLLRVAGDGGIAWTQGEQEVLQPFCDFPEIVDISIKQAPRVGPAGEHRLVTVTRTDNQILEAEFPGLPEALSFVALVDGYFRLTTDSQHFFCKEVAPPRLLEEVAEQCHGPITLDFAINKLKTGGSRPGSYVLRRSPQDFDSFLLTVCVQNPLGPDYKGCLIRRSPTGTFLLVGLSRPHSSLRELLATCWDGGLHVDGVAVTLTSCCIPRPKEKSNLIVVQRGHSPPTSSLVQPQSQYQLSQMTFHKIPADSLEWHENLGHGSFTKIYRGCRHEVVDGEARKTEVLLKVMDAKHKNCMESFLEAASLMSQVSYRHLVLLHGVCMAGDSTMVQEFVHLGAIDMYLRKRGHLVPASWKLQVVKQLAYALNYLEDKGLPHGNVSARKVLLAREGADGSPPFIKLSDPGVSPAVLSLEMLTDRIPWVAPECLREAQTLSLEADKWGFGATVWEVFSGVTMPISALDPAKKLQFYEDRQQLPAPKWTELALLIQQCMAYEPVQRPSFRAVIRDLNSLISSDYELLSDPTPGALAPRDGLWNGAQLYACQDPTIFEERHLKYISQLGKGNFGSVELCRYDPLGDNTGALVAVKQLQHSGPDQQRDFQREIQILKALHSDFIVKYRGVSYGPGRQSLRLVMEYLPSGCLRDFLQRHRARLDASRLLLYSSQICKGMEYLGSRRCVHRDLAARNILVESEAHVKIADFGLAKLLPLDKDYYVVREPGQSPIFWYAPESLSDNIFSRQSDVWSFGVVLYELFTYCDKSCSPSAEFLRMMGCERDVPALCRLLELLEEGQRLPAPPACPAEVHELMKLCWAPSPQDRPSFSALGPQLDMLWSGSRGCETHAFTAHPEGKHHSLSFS
Sequence of Calcium/calmodulin-dependent protein kinase type II subunit gamma (Q13555 whole entry): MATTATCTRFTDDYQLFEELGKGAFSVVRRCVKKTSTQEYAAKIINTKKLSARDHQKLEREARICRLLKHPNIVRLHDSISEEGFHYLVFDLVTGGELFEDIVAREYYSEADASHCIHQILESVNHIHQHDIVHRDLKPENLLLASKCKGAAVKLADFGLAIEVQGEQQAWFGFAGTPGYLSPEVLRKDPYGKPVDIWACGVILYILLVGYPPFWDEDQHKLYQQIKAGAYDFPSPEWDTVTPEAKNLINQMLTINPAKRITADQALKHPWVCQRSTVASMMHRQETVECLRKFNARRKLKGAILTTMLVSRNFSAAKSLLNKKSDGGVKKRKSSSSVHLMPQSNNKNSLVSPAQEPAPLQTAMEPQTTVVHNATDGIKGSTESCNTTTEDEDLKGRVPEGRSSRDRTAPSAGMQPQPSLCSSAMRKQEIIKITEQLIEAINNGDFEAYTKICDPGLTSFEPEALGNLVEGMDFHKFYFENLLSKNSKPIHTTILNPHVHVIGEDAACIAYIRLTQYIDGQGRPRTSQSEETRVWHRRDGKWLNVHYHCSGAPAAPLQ
Sequence of Mitogen-activated protein kinase 14 (Q16539 whole entry): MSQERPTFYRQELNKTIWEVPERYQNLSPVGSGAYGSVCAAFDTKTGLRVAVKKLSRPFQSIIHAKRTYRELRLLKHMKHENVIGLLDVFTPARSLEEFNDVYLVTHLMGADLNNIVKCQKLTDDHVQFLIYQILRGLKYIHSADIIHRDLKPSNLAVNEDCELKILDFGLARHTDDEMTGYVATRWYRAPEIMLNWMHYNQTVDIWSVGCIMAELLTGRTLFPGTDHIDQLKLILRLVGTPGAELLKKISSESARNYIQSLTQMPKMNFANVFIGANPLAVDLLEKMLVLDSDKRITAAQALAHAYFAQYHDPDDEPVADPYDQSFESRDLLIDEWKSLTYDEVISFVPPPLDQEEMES
Sequence of Tyrosine-protein kinase FRK (P42685 whole entry): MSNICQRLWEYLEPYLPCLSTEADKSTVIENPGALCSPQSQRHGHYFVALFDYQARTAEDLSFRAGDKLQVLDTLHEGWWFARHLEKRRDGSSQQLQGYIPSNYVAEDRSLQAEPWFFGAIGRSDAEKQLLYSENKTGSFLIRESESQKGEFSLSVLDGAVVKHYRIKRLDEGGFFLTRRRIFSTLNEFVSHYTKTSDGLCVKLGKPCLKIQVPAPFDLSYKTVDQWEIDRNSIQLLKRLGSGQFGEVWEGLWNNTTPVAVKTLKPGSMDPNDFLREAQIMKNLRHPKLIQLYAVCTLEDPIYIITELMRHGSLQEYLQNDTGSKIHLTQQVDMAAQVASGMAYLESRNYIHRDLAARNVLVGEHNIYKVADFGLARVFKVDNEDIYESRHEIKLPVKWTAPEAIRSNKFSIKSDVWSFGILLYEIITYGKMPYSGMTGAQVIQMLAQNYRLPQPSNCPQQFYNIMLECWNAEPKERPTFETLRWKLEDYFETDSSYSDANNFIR
Sequence of Mitogen-activated protein kinase kinase kinase kinase 2 (Q12851 whole entry): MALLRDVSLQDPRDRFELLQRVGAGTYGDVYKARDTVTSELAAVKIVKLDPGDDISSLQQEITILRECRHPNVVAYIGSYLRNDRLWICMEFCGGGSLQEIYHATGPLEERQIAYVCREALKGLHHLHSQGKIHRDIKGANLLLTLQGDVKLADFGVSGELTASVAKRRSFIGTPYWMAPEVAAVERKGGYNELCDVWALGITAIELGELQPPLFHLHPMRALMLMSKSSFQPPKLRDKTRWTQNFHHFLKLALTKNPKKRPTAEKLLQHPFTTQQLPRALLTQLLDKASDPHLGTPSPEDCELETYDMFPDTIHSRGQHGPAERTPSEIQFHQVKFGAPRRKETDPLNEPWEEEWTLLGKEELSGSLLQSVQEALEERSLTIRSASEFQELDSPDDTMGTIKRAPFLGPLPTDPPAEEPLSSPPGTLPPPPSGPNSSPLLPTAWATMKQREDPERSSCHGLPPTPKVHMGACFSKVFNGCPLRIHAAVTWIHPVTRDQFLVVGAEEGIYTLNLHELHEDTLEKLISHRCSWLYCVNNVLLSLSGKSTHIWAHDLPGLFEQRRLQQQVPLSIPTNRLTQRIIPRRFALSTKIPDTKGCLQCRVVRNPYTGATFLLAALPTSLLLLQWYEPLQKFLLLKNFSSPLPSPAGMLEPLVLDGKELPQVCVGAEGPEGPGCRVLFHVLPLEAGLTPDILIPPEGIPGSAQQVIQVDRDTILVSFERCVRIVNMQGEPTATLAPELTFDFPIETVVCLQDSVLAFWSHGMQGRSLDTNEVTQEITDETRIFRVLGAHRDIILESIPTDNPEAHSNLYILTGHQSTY
Sequence of Maternal embryonic leucine zipper kinase (Q14680 whole entry): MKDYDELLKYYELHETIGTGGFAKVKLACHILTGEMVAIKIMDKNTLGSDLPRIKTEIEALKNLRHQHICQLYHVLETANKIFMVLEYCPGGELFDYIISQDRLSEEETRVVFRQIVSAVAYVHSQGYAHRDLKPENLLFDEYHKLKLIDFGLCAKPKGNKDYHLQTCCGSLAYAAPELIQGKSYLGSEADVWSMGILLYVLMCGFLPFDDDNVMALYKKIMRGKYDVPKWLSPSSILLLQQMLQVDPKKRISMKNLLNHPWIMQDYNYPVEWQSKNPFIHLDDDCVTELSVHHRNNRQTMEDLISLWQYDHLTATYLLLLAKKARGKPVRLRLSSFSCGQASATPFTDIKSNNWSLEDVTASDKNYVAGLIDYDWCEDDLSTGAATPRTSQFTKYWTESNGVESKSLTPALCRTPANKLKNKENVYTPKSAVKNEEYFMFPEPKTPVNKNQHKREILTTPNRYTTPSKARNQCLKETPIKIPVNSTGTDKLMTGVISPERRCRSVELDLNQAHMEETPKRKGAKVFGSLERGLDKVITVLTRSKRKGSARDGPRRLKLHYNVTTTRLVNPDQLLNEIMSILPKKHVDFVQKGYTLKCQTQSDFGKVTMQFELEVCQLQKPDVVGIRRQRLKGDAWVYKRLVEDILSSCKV
Sequence of Mitogen-activated protein kinase 8 (P45983 whole entry): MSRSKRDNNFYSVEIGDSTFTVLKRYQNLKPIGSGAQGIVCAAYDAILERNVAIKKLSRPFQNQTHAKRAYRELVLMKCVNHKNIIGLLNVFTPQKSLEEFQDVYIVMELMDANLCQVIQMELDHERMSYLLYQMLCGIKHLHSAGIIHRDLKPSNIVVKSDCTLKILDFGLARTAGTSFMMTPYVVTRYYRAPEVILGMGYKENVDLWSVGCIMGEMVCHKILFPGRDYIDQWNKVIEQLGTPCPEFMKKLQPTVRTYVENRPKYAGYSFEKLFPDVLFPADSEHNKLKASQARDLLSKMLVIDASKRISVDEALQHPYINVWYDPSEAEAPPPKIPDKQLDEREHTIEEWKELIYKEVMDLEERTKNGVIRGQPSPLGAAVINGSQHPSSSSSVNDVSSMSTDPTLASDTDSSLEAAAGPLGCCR

Broadly, the IC50 is the midpoint of a concentration-inhibition curve. Usually AC50 stands for the midpoint of the concentration-response curve, whichever way the signal moves. `Cc1c(NC(=O)C(C)OC(=O)c2ccc([N+](=O)[O-])s2)c(=O)n(-c2ccccc2)n1C` (centres undefined): the IC50 at Caspase-3 [1] was 13.6 µM (active); in experiment [2] it was 10.4 µM (active). In addition, on Caspase-8, the AC50 was 22.8 µM (active).

As to `COc1cc(Br)c(C(=O)c2nccc3cc(OC)c(OC)cc23)cc1OC`, the 50% inhibitory concentration (IC50) in [3] was 35.6 µM (active); on Caspase-3 [4], 23.9 µM (active).

One may read the Ki as the dissociation constant of the complex between target and ligand, obtained from inhibition or displacement. Turning to `CC(N)C1CCC(C(=O)Nc2ccnc3[nH]ccc23)CC1` (centres undefined), the Ki in experiment [5] is > 7.94 µM (inactive); in experiment [6], > 3.98 µM (inactive); in experiment [7], 0.158 µM (active); in experiment [8], > 3.16 µM (inactive); in experiment [9], > 1.58 µM (inactive); in experiment [10] it was > 6.31 µM (inactive). Also, the Ki is > 1.58 µM (inactive) in experiment [11]; > 2.51 µM (inactive) in experiment [12]; 0.631 µM (active) in [13]; > 3.98 µM (inactive) in experiment [14]; > 2 µM (inactive) in experiment [15]; > 2.51 µM (inactive) in experiment [16]. Besides, the Ki on SRSF protein kinase 1 was > 7.94 µM (inactive); in experiment [17] it was > 1.58 µM (inactive); in experiment [18], > 2.51 µM (inactive); in experiment [19], 1 µM (active); in experiment [20], > 6.31 µM (inactive); in experiment [21] it was > 3.98 µM (inactive). Besides, the Ki in experiment [22] was > 5.01 µM (inactive).
